The supplement of paper PMC10331698
± gives the standard deviation of the averaged measurements.

Tests used:
Experiment in all cases: level (log10 ratio to DMSO vehicle control); higher = higher biomarker level / cell amount than vehicle control
Conditions in all cases: in DMSO
[1] = compound: FC(F)(F)C(F)(C(F)(F)F)C(F)(F)C(F)(F)CC1CO1 [3-(Perfluoro-3-methylbutyl)-1,2-propenoxide]
Description: (§1)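 BioMAP Diversity Plus panel of 12 human primary cell co-culture systems (3C, 4H, LPS, SAg, BT, BF4T, BE3C, CASM3C, HDF3CGF, KF3CT, MyoF, Mphg). Compounds were added 1 h before stimulation and left for 24 h (MyoF 48 h; BT 72 h for soluble read-outs or 6 d for IgG). Biomarkers were read by ELISA, cytotoxicity by SRB, PBMC viability and proliferation by Alamar Blue. Each well value was divided by the mean of 8 DMSO control wells on the same plate and log10 transformed; duplicate blinded samples were tested at 4 concentrations.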

[2] = compound: FC(F)(F)C(F)(F)C(F)(F)C(F)(F)C(F)(F)CCI [1-Iodo-1H,1H,2H,2H-perfluoroheptane]
Description: as §1

[3] = compound: CCN(CCO)S(=O)(=O)C(F)(F)C(F)(F)C(F)(F)C(F)(F)C(F)(F)C(F)(F)C(F)(F)C(F)(F)F [N-Ethyl-N-(2-hydroxyethyl)perfluorooctanesulfonamide]
Description: as §1

Perfluoroheptanoic acid = compound: O=C(O)C(F)(F)C(F)(F)C(F)(F)C(F)(F)C(F)(F)C(F)(F)F [Perfluoroheptanoic acid]
Description: as §1

[4] = compound: FC(F)(F)C(F)(F)C(F)(F)C(F)(F)C(F)(F)C(F)(F)C(F)(F)C(F)(F)CCS [2-(Perfluorooctyl)ethanthiol]
Description: as §1

[5] = compound: NCC(F)(F)C(F)(F)C(F)(F)C(F)(F)C(F)(F)C(F)(F)C(F)(F)F [1H,1H-Perfluorooctylamine]
Description: as §1

Heptafluorobutyramide = compound: NC(=O)C(F)(F)C(F)(F)C(F)(F)F [Heptafluorobutyramide]
Description: as §1

| Test System | level (log10) ([1]; 6700 nM) | level (log10) ([1]; 20000 nM) | level (log10) ([2]; 6700 nM) | level (log10) ([2]; 20000 nM) | level (log10) ([2]; 60000 nM) | level (log10) ([3]; 6700 nM) | level (log10) ([3]; 20000 nM) | level (log10) (Perfluoroheptanoic acid; 6700 nM) | level (log10) (Perfluoroheptanoic acid; 20000 nM) | level (log10) (Perfluoroheptanoic acid; 60000 nM) | level (log10) ([4]; 6700 nM) | level (log10) ([4]; 20000 nM) | level (log10) ([5]; 6700 nM) | level (log10) ([5]; 20000 nM) | level (log10) ([5]; 60000 nM) | level (log10) (Heptafluorobutyramide; 6700 nM) | level (log10) (Heptafluorobutyramide; 20000 nM) | level (log10) (Heptafluorobutyramide; 60000 nM) |
| --- | --- | --- | --- | --- | --- | --- | --- | --- | --- | --- | --- | --- | --- | --- | --- | --- | --- | --- |
| HDF3CGF:TIMP-1 | -0.012 ± 0.035 | -0.035 ± 0.033 | -0.001 ± 0.0042 | 0.0055 ± 0.005 | -0.024 ± 0.0085 | 0.005 ± 0.081 | -0.0605 ± 0.074 | -0.0015 ± 0.00071 | -0.0115 ± 0.0035 | -0.0055 ± 0.035 | -0.017 ± 0.013 | -0.035 ± 0.0042 | -0.0265 ± 0.077 | -0.0335 ± 0.036 | -0.0405 ± 0.036 | 0.002 ± 0.017 | -0.017 ± 0.051 | -0.001 ± 0.0042 |
| HDF3CGF:CD54/ICAM-1 | -0.013 ± 0.021 | -0.014 ± 0.041 | -0.0065 ± 0.013 | -0.0215 ± 0.00071 | -0.0195 ± 0.0064 | 0.133 ± 0.019 | 0.089 ± 0.0042 | 0.004 ± 0.02 | -0.0145 ± 0.005 | -0.0255 ± 0.018 | -0.012 ± 0.0057 | -0.0145 ± 0.021 | -0.003 ± 0.013 | -0.0055 ± 0.011 | -0.0095 ± 0.0078 | -0.0045 ± 0.021 | 0.0035 ± 0.0092 | -0.001 ± 0.0099 |
| KF3CT:CCL2/MCP-1 | -0.004 ± 0.03 | 0.022 ± 0.04 | 0.0005 ± 0.015 | -0.034 ± 0.028 | -0.0465 ± 0.064 | -0.0205 ± 0.0078 | -0.102 ± 0.019 | 0.0165 ± 0.021 | 0.033 ± 0.024 | 0.0255 ± 0.053 | -0.0125 ± 0.011 | -0.0285 ± 0.0092 | -0.0055 ± 0.043 | -0.021 ± 0.013 | 0.0045 ± 0.0078 | -0.006 ± 0.0014 | -0.009 ± 0.013 | 0.0165 ± 0.057 |
| HDF3CGF:Proliferation 72hr | 0 ± 0.034 | 0.0055 ± 0.0078 | -0.058 ± 0.0099 | -0.257 ± 0.04 | -0.832 ± 0.16 | -0.391 ± 0.079 | -0.746 ± 0.094 | -0.054 ± 0.033 | 0.0515 ± 0.098 | -0.018 ± 0.018 | -0.003 ± 0.0071 | -0.0115 ± 0.013 | -0.041 ± 0.045 | 0.004 ± 0.035 | -0.016 ± 0.041 | 0.0015 ± 0.088 | 0.016 ± 0.041 | -0.0205 ± 0.053 |
| MyoF:Decorin | 0.0025 ± 0.029 | 0.026 ± 0.042 | -0.012 ± 0.0028 | -0.022 ± 0.023 | -0.007 ± 0.034 | -0.0095 ± 0.016 | -0.085 ± 0.028 | -0.0015 ± 0.013 | 0.036 ± 0.0042 | 0.0505 ± 0.035 | -0.0145 ± 0.018 | -0.0105 ± 0.033 | -0.016 ± 0.011 | -0.025 ± 0.017 | -0.027 ± 0.0099 | -0.029 ± 0.057 | 0.02 ± 0.081 | 0.0065 ± 0.049 |
| HDF3CGF:CD106/VCAM-1 | -0.0045 ± 0.012 | -0.0245 ± 0.025 | -0.0335 ± 0.019 | -0.102 ± 0.033 | -0.429 ± 0.011 | -0.0825 ± 0.046 | -0.173 ± 0.11 | -0.034 ± 0.027 | -0.0135 ± 0.029 | -0.021 ± 0.038 | -0.0255 ± 0.0064 | -0.0555 ± 0.059 | -0.0015 ± 0.0078 | -0.0445 ± 0.074 | -0.08 ± 0.095 | 0.0035 ± 0.0092 | -0.012 ± 0.018 | -0.0345 ± 0.054 |
| CASM3C:CXCL8/IL-8 | -0.0065 ± 0.005 | -0.003 ± 0.0014 | 0.002 ± 0.0028 | -0.0025 ± 0.0035 | 0.003 ± 0.018 | -0.0075 ± 0.016 | -0.024 ± 0.0085 | -0.0085 ± 0.0064 | -0.002 ± 0.0042 | 0.046 ± 0.018 | 0.021 ± 0.047 | 0.034 ± 0.037 | -0.005 ± 0.0057 | -0.022 ± 0.013 | 0.005 ± 0.027 | -0.005 ± 0.0057 | -0.007 ± 0.0099 | 0.0075 ± 0.015 |
| MyoF:MMP-1 | -0.007 ± 0.0085 | -0.014 ± 0.0057 | -0.013 ± 0.038 | -0.0185 ± 0.037 | 0.037 ± 0.011 | 0.069 ± 0.021 | 0.426 ± 0.052 | -0.0175 ± 0.0064 | -0.0245 ± 0.011 | 0.021 ± 0.061 | -0.0265 ± 0.0092 | -0.0545 ± 0.037 | -0.0095 ± 0.016 | -0.0395 ± 0.012 | -0.0055 ± 0.025 | -0.0185 ± 0.018 | -0.0105 ± 0.049 | 0.027 ± 0.082 |
| CASM3C:CD142/Tissue Factor | -0.038 ± 0.047 | -0.033 ± 0.014 | 0.001 ± 0.0085 | -0.0065 ± 0.005 | -0.0295 ± 0.028 | -0.0325 ± 0.012 | 0.0145 ± 0.022 | -0.0065 ± 0.012 | 0.015 ± 0.016 | 0.015 ± 0.071 | -0.0015 ± 0.13 | -0.0415 ± 0.07 | -0.018 ± 0.0014 | -0.0135 ± 0.015 | 0.021 ± 0.03 | 0.007 ± 0.034 | -0.0105 ± 0.05 | -0.031 ± 0.041 |
| CASM3C:M-CSF | -0.0175 ± 0.0021 | 0.008 ± 0.042 | -0.0055 ± 0.035 | -0.0145 ± 0.011 | -0.0265 ± 0.0092 | 0.0045 ± 0.00071 | 0.0395 ± 0.0092 | -0.004 ± 0.028 | -0.005 ± 0.028 | 0.0035 ± 0.049 | 0.013 ± 0.0014 | 0.047 ± 0.014 | -0.059 ± 0.027 | -0.0055 ± 0.0078 | 0.0115 ± 0.061 | -0.0495 ± 0.0035 | -0.0375 ± 0.018 | 0.022 ± 0.073 |
| KF3CT:TIMP-2 | -0.003 ± 0.0042 | 0.0015 ± 0.042 | -0.012 ± 0.035 | -0.03 ± 0.028 | -0.0245 ± 0.03 | 0.0855 ± 0.037 | 0.04 ± 0.0028 | 0.006 ± 0.021 | 0.0085 ± 0.025 | 0.031 ± 0.017 | -0.025 ± 0.02 | -0.021 ± 0.02 | -0.013 | -0.01 ± 0.018 | -0.017 ± 0.013 | -0.001 ± 0.011 | 0.0075 ± 0.0035 | 0.008 ± 0.0042 |
| CASM3C:CCL2/MCP-1 | -0.003 ± 0.0071 | 0.004 ± 0.031 | -0.0045 ± 0.011 | -0.006 ± 0.028 | -0.001 ± 0.037 | 0.003 ± 0.017 | -0.017 ± 0.0057 | -0.0115 ± 0.015 | -0.013 ± 0.011 | 0.032 ± 0.044 | 0.008 ± 0.0014 | 0.0155 ± 0.0092 | -0.0145 ± 0.044 | -0.0245 ± 0.0092 | 0.009 ± 0.04 | -0.004 ± 0.0057 | -0.0145 ± 0.0021 | 0.015 ± 0.037 |
| CASM3C:CD141/Thrombomodulin | 0.003 | 0 ± 0.044 | -0.011 ± 0.0085 | 0.0015 ± 0.012 | 0.0845 ± 0.012 | 0.078 ± 0.014 | 0.191 ± 0.013 | -0.0085 ± 0.025 | 0.0065 ± 0.0064 | 0.011 ± 0.033 | -0.034 ± 0.048 | -0.0065 ± 0.09 | -0.017 ± 0.025 | -0.0055 ± 0.005 | 0.031 ± 0.045 | 0.017 ± 0.033 | 0.0065 ± 0.033 | -0.016 ± 0.041 |
| HDF3CGF:SRB | 0.0005 ± 0.057 | 0.0145 ± 0.06 | 0.0335 ± 0.036 | 0.0065 ± 0.023 | -0.052 ± 0.033 | -0.127 ± 0.011 | -0.153 ± 0.084 | -0.029 ± 0.016 | 0.0125 ± 0.064 | -0.045 ± 0.052 | 0.0135 ± 0.023 | 0.011 ± 0.0085 | -0.0315 ± 0.0078 | 0.0335 ± 0.046 | 0.0315 ± 0.12 | 0.018 ± 0.0014 | 0.0035 ± 0.025 | 0.0075 ± 0.03 |
| HDF3CGF:EGFR | -0.015 ± 0.0028 | 0.0035 ± 0.023 | 0.046 ± 0.02 | 0.059 ± 0.021 | 0.038 ± 0.031 | -0.102 ± 0.024 | -0.115 ± 0.0021 | -0.008 ± 0.016 | 0.004 ± 0.0028 | 0.01 ± 0.023 | -0.0295 ± 0.018 | -0.018 ± 0.04 | -0.039 ± 0.047 | -0.047 ± 0.073 | -0.034 ± 0.086 | 0.0095 ± 0.059 | 0.0005 ± 0.046 | -0.0155 ± 0.032 |
